Test results reported in article PMC5365648, “Pharmacokinetics of the Novel Echinocandin CD101 in Multiple Animal Species” (Antimicrobial Agents and Chemotherapy, 2017).
Like-named read-outs stand apart in the source and are kept apart here. Starred links: 1 amine or outer side, 2 acyl side, 3 side chain; linkers in the order of their positions; H or OH if unused. Positions of bridges follow the written chain, without caps; N, C: chain ends. Non-standard residues stand in square brackets, D forms with d. Residues, ends and D or L forms follow the SMILES beside them. *: point of attachment. Orn(4R-OH,5R-OCH2CH2NMe3+) = C[N+](C)(C)CCO[C@@H](N[*:3])[C@H](O)C[C@H](N[*:1])C(=O)[*:2]; pTerphenylCO(4''-OnC5H11) = CCCCCOc1ccc(-c2ccc(-c3ccc(C(=O)*)cc3)cc2)cc1; hTyr(3S-OH,4S-OH) = N[C@H](C(=O)O)[C@H](O)[C@@H](O)c1ccc(O)cc1; Pro(3S-OH,4S-Me) = C[C@H]1CN[C@H](C(=O)O)[C@H]1O; Hyp = O=C(O)[C@@H]1C[C@@H](O)CN1

Legend:
[1] = Cynomolgus monkey pharmacokinetics, i.v. bolus; parameters: species or system cynomolgus monkeys; conditions: in vivo, iv, male cynomolgus monkeys, single 2.13 mg/kg slow i.v. bolus, plasma, LC-MS/MS, noncompartmental
Protocol: A single dose of 2.13 mg/kg CD101 or 2.8 mg/kg anidulafungin was administered by slow i.v. bolus (∼10 min) to cynomolgus monkeys (n = 3/group), and blood samples (via peripheral vein) were drawn for plasma processing at 0.167, 0.5, 1, 3, 8, 12, 24, 48, and 72 h postdose.
(§1) For each of the pharmacokinetic studies, whole-blood samples (K3EDTA as anticoagulant) were collected and centrifuged within 30 min of collection. The resulting plasma was harvested and stored at −20°C until analysis. Tissue samples were homogenized by a bead-based homogenizer following the addition of deionized water to excised tissue in a 2:1 (vol/wt) ratio and stored at −20°C until analysis. Prior to analysis, plasma or homogenized tissue samples were quenched with acetonitrile (3:1, acetonitrile-plasma or tissue ratio) containing an appropriate internal standard (isotopically labeled d9-CD101 [mouse and rat] or a structural analog [dog, monkey, and chimpanzee]). Plasma and tissue homogenate concentrations (quantified against calibration standards processed the same way) were determined by reverse-phase, gradient liquid chromatography with tandem mass spectrometric detection (LC-MS/MS) using an AB-SCIEX API 3200Q/4000 mass spectrometry system. Calibration standard ranges were the following: 0.400 (lower limit of quantitation, [LLOQ]) to 200 μg/ml (CD101, mouse), 0.040 (LLOQ) to 10 μg/ml (anidulafungin, mouse), 0.002 (LLOQ) to 10 μg/ml (CD101, rat), 0.005 (LLOQ) to 10 μg/ml (anidulafungin, rat), 0.050 (LLOQ) to 10 μg/ml (CD101, dog), 0.020 (LLOQ) to 10 μg/ml (anidulafungin, dog), 0.010 (LLOQ) to 10 μg/ml (CD101, monkey), 0.001 (LLOQ) to 10 μg/ml (anidulafungin, monkey), 0.015 (LLOQ) to 10 μg/ml (CD101, chimpanzee), and 0.015 (LLOQ) to 10 μg/ml (anidulafungin, chimpanzee). When necessary, dilutions with blank matrix were made for samples that quantified above the upper limit of quantitation. The methods used in the analysis were qualified as fit for purpose: calibration standards were matrix matched with the exception that human plasma calibration standards were used to analyze chimpanzee plasma samples due to the rarity of blank chimpanzee plasma, and, for each analytical batch, triplicate calibration standards were included at the beginning, approximately in the middle, and at the end of the batch. Following analysis, quantitation was carried out by a calibration curve comprising the analyte/internal standard area ratio versus concentration. Analytical batch acceptance followed the general guidance that triplicate standards/quality controls be within ±20% for accuracy (percentage of nominal concentration) and ≤20% for precision (percent coefficient of variation).
(§2) Pharmacokinetic parameters were calculated by noncompartmental analysis using Phoenix WinNonlin (version 6.3; Pharsight, Mountain View, CA) from either individual or mean (mouse) concentration-time profiles. An unpaired t test was used to compare mean exposures from male and female rats.

[2] = Chimpanzee pharmacokinetics, i.v. infusion; assay type: in vivo, chimpanzees
Protocol: A single 1-mg/kg dose of CD101 or anidulafungin was administered by i.v. infusion (1 h) to female chimpanzees (n = 2/group), and blood samples (via peripheral vein) were drawn for plasma processing at the midpoint of infusion, at the end of infusion, at 2, 4, 8, 12, 24, 48, and 72 h postdose, and on days 5, 7, and 10 postdose.
as §1, §2

[3] = ref [10], cited from earlier work
Protocol: The half-life of CD101 in human is about 3-fold longer (about 90 h) than that of anidulafungin (about 30 h) ([10]). It should be noted that 90 h is the effective half-life of CD101 (i.e., the half-life that covers the majority of the AUC), with a longer, later-phase half-life evident at lower concentration ...

[4] = Dog pharmacokinetics, i.v. bolus; conditions: in vivo, iv, male beagle dogs, single 1.4 mg/kg slow i.v. bolus, plasma, LC-MS/MS, noncompartmental
Protocol: as §1, §2

[5] = Rat tissue distribution after i.v. bolus; assay type: in vivo, Sprague-Dawley rats; conditions: for Kp: rat, iv
Protocol: In one of three rat studies reported here, a single 5-, 15-, or 45-mg/kg dose of CD101 was administered by slow i.v. bolus (∼3 min) to Sprague-Dawley rats (n = 3 to 5/dose). Blood samples (via jugular vein catheter [JVC]) were drawn for plasma processing at 0.083, 0.25, 0.5, 1, 2, 4, 8, 24, 48, 120, 168, and 240 h after dosing. In the second rat study, conducted to assess tissue distribution, a single 5-mg/kg dose of CD101 was administered by slow i.v. bolus (∼3 min) to male Sprague-Dawley rats (n = 3 animals/time point). Blood samples (via cardiac puncture) were collected for plasma processing predose and at 0.083, 0.5, 1, 2, 4, 8, 24, 48, 72, 96, and 120 h postdose. In parallel with blood collection, animals were euthanized, and tissues (liver, lungs, kidneys, heart, spleen, and brain) were excised and frozen prior to analysis. In the third rat study, conducted to assess excretion, a single 5-mg/kg dose of CD101 was administered by slow i.v. bolus (∼3 min) to bile duct-cannulated male Sprague-Dawley rats (n = 3). Bile samples were collected from each animal into prelabeled bile collection tubes predose and at 0 to 8, 8 to 24, 24 to 48, 48 to 72, 72 to 96, and 96 to 120 h postdose; urine samples were collected from each animal at the same time points pre- and postdose.
as §1, §2

[6] = in vivo, iv, female chimpanzees, single 1 mg/kg i.v. infusion (1 h), plasma, LC-MS/MS, noncompartmental, n = 2
[7] = male Sprague-Dawley rats, single 5 mg/kg i.v. bolus
[8] = male Sprague-Dawley rats, single 5 mg/kg i.v. bolus, t = 120 h, LC-MS/MS, n = 3/time point

In the case of `CCCCCOc1ccc(-c2ccc(-c3ccc(C(=O)N[C@H]4C[C@@H](O)[C@@H](OCC[N+](C)(C)C)NC(=O)[C@@H]5[C@@H](O)[C@@H](C)CN5C(=O)[C@H]([C@@H](C)O)NC(=O)[C@H]([C@H](O)[C@@H](O)c5ccc(O)cc5)NC(=O)[C@@H]5C[C@@H](O)CN5C(=O)[C@H]([C@@H](C)O)NC4=O)cc3)cc2)cc1` [CD101] ({pTerphenylCO(4''-OnC5H11)}-[Orn(4R-OH,5R-OCH2CH2NMe3+)]T[Hyp][hTyr(3S-OH,4S-OH)]T[Pro(3S-OH,4S-Me)]; lactam 1-C), the AUC(0-t) ([1]; n = 3) is reported as 92.1 µg·h/mL, the Cmax ([1]; n = 3) is reported as 9070 ng/mL and the Tmax ([1]; n = 3) is reported as 0.167 h. For the same compound, the half-life ([1]; n = 3) was 39.7 h, the clearance ([1]; n = 3, read-out: CL (clearance)) was 0.405 mL/min/kg and the Vd ([1]; n = 3, read-out: Vss (volume of distribution at steady state)) was 0.597 L/kg. The “clearance fold lower than anidulafungin” value ([2]; chimpanzee, 1 mg/kg i.v. infusion, 0.06 versus 0.42 ml/min/kg, n = 2/group) was “over 7 fold”, the “t1/2 fold longer than anidulafungin” value ([2]; chimpanzee, 1 mg/kg i.v. infusion, 81 versus 30 h, n = 2/group) was 2.7 fold and the AUC(0-inf) [2, 6] was 302 µg·h/mL. The AUC(0-t) [2, 6] was 290 µg·h/mL, the Cmax [2, 6] was 7150 ng/mL and the Tmax [2, 6] was 1 h. It also gave a half-life [2, 6] of 80.7 h, a clearance ([2]; in vivo, iv, female chimpanzees, single 1 mg/kg i.v. infusion (1 h), plasma, LC-MS/MS, noncompartmental, n = 2, read-out: CL (clearance)) of 0.0568 mL/min/kg and a Vd ([2]; in vivo, iv, female chimpanzees, single 1 mg/kg i.v. infusion (1 h), plasma, LC-MS/MS, noncompartmental, n = 2, read-out: Vss (volume of distribution at steady state)) of 0.4 L/kg. The half-life in human ([3]; for CD101 the effective half-life (covers the majority of the AUC)) was “about 90 h”, the “half-life in human, fold longer than anidulafungin” value [3] was “about 3 fold” and the AUC(0-t) ([4]; n = 4) was 48.7 µg·h/mL. The Cmax ([4]; n = 4) was 1570 ng/mL, the Tmax ([4]; n = 4) was 4.98 min and the clearance ([4]; n = 4, read-out: CL (clearance)) was 0.301 mL/min/kg. The “Tmax in brain tissue” value [5, 7] was 48 h, the “Tmax in heart tissue” value [5, 7] was 8 h and the “time of maximum concentration in plasma and tissues except heart and brain (first sampling time)” value [5, 7] was 5 min. For the same compound, the “Mean AUC0–t in brain tissue” value [5, 8] was 145 µg·h/g, the “Mean AUC0–t in kidney tissue” value [5, 8] was 1,100 μg · hr/g and the Kp ([5]; male, Sprague-Dawley, kidney, lung, liver, spleen / plasma, rats, 5 mg/kg i.v., read-out: Tissue/plasma AUC ratio, fold higher in major organs (kidney, lung, liver, spleen) than in plasma) was 4 to 5. The Kp ([5]; brain / plasma, male Sprague-Dawley rats, single 5 mg/kg i.v. bolus, t = 120 h, tissue homogenate, LC-MS/MS, n = 3/time point, read-out: Tissue/plasma AUC0–t ratio, brain) was 0.609, the Kp ([5]; heart / plasma, male Sprague-Dawley rats, single 5 mg/kg i.v. bolus, t = 120 h, tissue homogenate, LC-MS/MS, n = 3/time point, read-out: Tissue/plasma AUC0–t ratio, heart) was 1.09 and the Kp ([5]; kidney, male Sprague-Dawley rats, single 5 mg/kg i.v. bolus, t = 120 h, tissue homogenate, LC-MS/MS, n = 3/time point, read-out: Tissue/plasma AUC0–t ratio, kidney) was 4.62. It also gave a Kp ([5]; liver, male Sprague-Dawley rats, single 5 mg/kg i.v. bolus, t = 120 h, tissue homogenate, LC-MS/MS, n = 3/time point, read-out: Tissue/plasma AUC0–t ratio, liver) of 4.14, a Kp ([5]; lung, male Sprague-Dawley rats, single 5 mg/kg i.v. bolus, t = 120 h, tissue homogenate, LC-MS/MS, n = 3/time point, read-out: Tissue/plasma AUC0–t ratio, lung) of 4.33 and a Kp ([5]; spleen / plasma, male Sprague-Dawley rats, single 5 mg/kg i.v. bolus, t = 120 h, tissue homogenate, LC-MS/MS, n = 3/time point, read-out: Tissue/plasma AUC0–t ratio, spleen) of 3.87.
